Results published in ChEMBL document CHEMBL5252509, “In depth analysis of kinase cross screening data to identify chemical starting points for inhibition of the Nek family of kinases” (Medchemcomm, 2018).

Legend:
[1] = target: T1, Serine/threonine-protein kinase Nek2 (Homo sapiens) (UniProt P51955); assay: Inhibition of NEK2 (unknown origin) at 1 uM relative to control
T1 sequence (whole entry): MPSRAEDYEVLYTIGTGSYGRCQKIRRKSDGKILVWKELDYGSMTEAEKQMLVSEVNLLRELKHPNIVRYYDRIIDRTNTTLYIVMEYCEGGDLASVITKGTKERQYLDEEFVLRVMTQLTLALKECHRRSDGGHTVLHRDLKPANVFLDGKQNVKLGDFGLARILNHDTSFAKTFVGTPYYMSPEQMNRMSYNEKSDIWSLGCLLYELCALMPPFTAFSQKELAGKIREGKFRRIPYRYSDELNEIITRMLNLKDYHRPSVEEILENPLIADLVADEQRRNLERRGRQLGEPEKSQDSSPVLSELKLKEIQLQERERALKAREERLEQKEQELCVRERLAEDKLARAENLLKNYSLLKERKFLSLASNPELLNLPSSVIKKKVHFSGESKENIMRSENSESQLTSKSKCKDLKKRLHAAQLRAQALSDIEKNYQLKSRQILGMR

[2] = target: Serine/threonine-protein kinase Nek6 (Homo sapiens) (UniProt Q9HC98); assay: Inhibition of NEK6 (unknown origin) at 1 uM relative to control
[3] = target: Serine/threonine-protein kinase Nek7 (Homo sapiens) (UniProt Q8TDX7); assay: Inhibition of NEK7 (unknown origin) at 1 uM relative to control
[4] = target: T2, Serine/threonine-protein kinase Nek9 (Homo sapiens) (UniProt Q8TD19); assay: Inhibition of NEK9 (unknown origin) at 1 uM relative to control
T2 sequence (whole entry): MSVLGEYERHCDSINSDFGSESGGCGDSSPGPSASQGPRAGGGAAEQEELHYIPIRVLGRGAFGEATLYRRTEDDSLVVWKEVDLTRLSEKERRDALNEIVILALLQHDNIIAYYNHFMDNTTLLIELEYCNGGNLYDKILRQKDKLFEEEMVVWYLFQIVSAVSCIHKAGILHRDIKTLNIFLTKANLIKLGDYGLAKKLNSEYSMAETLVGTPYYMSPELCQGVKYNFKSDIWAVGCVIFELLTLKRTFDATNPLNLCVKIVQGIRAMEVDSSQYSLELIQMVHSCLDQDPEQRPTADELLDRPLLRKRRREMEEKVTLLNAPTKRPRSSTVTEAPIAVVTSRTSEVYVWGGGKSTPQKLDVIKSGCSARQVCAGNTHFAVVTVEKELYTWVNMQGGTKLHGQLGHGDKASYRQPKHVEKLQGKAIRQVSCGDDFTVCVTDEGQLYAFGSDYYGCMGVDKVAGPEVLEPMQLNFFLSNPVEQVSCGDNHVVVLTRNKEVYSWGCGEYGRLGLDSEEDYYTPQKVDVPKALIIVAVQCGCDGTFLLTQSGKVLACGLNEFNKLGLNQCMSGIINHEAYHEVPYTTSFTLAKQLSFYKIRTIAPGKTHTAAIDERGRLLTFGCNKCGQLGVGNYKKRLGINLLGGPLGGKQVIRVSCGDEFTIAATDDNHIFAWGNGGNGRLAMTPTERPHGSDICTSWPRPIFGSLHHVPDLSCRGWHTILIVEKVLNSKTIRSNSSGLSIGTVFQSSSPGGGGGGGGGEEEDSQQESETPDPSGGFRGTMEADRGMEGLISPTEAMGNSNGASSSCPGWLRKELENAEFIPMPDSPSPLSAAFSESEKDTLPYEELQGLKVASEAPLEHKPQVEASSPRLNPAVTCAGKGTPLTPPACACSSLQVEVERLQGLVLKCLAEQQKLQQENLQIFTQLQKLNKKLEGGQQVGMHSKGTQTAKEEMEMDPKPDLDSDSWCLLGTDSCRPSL

[5] = target: T3, Serine/threonine-protein kinase Nek1 (Homo sapiens) (UniProt Q96PY6); assay: Inhibition of NEK1 (unknown origin) at 100 nM relative to control
T3 sequence (whole entry): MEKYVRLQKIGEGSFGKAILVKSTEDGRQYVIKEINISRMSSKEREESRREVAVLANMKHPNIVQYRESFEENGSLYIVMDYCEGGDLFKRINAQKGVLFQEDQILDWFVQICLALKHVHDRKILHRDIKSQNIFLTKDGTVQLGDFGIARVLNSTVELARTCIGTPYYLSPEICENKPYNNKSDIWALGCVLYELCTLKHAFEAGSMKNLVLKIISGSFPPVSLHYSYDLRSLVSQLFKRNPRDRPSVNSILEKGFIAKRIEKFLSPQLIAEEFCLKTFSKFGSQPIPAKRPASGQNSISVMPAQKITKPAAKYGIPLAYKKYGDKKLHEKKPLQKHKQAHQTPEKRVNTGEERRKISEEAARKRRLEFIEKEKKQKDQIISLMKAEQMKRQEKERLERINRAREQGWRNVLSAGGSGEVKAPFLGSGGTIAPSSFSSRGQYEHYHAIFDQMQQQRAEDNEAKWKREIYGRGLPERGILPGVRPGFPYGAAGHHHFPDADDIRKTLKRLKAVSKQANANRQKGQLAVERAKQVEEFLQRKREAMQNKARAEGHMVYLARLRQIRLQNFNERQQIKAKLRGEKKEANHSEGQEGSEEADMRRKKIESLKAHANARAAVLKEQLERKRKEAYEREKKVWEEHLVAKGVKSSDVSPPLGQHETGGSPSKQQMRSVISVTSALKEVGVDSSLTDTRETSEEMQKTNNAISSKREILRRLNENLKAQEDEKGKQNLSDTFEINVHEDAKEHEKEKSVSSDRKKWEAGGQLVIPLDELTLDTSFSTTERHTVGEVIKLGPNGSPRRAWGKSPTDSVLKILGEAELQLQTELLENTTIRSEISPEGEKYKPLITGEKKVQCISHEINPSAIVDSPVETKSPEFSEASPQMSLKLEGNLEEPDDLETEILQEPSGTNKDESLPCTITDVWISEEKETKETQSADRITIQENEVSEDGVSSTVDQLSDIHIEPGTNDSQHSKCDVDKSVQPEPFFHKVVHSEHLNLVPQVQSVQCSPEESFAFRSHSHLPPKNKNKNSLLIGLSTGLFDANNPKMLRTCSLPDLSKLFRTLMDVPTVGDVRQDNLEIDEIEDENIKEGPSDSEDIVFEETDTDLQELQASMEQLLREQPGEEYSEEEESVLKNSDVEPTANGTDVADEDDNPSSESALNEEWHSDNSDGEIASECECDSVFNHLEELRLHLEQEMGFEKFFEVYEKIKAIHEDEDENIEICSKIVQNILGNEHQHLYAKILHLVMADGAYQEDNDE

[6] = target: T1, Serine/threonine-protein kinase Nek2 (Homo sapiens); assay: Inhibition of NEK2 (unknown origin) at 100 nM relative to control
[7] = target: Serine/threonine-protein kinase Nek6 (Homo sapiens) (UniProt Q9HC98); assay: Inhibition of NEK6 (unknown origin) at 100 nM relative to control
[8] = target: Serine/threonine-protein kinase Nek7 (Homo sapiens) (UniProt Q8TDX7); assay: Inhibition of NEK7 (unknown origin) at 100 nM relative to control
[9] = target: T2, Serine/threonine-protein kinase Nek9 (Homo sapiens); assay: Inhibition of NEK9 (unknown origin) at 100 nM relative to control
[10] = target: Serine/threonine-protein kinase Nek2 (Homo sapiens, UniProt P51955); assay: Inhibition of NEK2 (unknown origin) assessed as dissociation constant
[11] = target: T1, Serine/threonine-protein kinase Nek2 (Homo sapiens); assay: Inhibition of NEK2 (unknown origin) at 10 uM relative to control
[12] = target: T4, Serine/threonine-protein kinase Nek3 (Homo sapiens) (UniProt P51956); assay: Inhibition of NEK3 (unknown origin) at 10 uM relative to control
T4 sequence (whole entry): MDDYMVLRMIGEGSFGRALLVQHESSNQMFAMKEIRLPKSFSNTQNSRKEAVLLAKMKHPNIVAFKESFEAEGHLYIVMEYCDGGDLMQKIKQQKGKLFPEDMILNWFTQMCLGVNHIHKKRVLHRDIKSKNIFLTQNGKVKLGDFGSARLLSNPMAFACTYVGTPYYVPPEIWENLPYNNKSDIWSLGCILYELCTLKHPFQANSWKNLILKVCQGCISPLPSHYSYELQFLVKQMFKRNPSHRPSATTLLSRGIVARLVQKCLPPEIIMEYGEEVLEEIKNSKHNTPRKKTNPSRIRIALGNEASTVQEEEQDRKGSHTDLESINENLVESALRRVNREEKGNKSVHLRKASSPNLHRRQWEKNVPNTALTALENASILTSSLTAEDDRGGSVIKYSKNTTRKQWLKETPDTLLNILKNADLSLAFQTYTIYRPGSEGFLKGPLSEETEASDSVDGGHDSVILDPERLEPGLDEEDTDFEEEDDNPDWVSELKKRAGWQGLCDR

[13] = target: Serine/threonine-protein kinase Nek4 (Homo sapiens) (UniProt P51957); assay: Inhibition of NEK4 (unknown origin) at 10 uM relative to control
[14] = target: T5, Serine/threonine-protein kinase Nek5 (Homo sapiens) (UniProt Q6P3R8); assay: Inhibition of NEK5 (unknown origin) at 10 uM relative to control
T5 sequence (whole entry): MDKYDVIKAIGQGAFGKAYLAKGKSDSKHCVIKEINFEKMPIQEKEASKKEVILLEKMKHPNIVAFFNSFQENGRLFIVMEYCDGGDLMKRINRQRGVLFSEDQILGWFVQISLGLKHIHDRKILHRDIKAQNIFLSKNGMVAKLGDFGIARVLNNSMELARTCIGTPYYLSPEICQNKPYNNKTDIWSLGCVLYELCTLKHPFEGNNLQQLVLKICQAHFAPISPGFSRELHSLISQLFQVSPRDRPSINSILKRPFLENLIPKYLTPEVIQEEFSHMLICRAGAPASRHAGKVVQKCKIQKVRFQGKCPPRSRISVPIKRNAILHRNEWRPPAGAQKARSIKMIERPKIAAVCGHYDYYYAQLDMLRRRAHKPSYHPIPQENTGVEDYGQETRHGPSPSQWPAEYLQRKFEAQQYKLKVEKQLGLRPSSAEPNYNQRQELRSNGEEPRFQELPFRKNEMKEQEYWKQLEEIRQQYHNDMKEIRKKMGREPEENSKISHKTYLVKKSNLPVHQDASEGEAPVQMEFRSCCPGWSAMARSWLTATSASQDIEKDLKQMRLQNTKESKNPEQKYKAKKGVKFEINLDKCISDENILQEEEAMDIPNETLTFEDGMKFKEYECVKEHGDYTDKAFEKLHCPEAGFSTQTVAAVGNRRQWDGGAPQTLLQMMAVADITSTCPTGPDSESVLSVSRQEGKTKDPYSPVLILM

[15] = target: Serine/threonine-protein kinase Nek6 (Homo sapiens) (UniProt Q9HC98); assay: Inhibition of NEK6 (unknown origin) at 10 uM relative to control
[16] = target: Serine/threonine-protein kinase Nek7 (Homo sapiens) (UniProt Q8TDX7); assay: Inhibition of NEK7 (unknown origin) at 10 uM relative to control
[17] = target: T2, Serine/threonine-protein kinase Nek9 (Homo sapiens); assay: Inhibition of NEK9 (unknown origin) at 10 uM relative to control
[18] = target: Serine/threonine-protein kinase Nek1 (Homo sapiens, UniProt Q96PY6); assay: Inhibition of NEK1 (unknown origin) assessed as dissociation constant
[19] = target: Serine/threonine-protein kinase Nek3 (Homo sapiens, UniProt P51956); assay: Inhibition of NEK3 (unknown origin) assessed as dissociation constant
[20] = target: T6, Serine/threonine-protein kinase Nek9 (Homo sapiens, UniProt Q8TD19); assay: Inhibition of NEK9 (unknown origin) assessed as dissociation constant
[21] = target: T6, Serine/threonine-protein kinase Nek9; assay: Inhibition of NEK9 (unknown origin)
[22] = target: Serine/threonine-protein kinase Nek4 (Homo sapiens) (UniProt P51957); assay: Inhibition of NEK4 (unknown origin) at 100 nM relative to control
[23] = target: Mitogen-activated protein kinase kinase kinase 8 (Homo sapiens, UniProt P41279); assay: Inhibition of MAP3K8 (unknown origin)
[24] = target: Serine/threonine-protein kinase Nek7 (Homo sapiens) (UniProt Q8TDX7); assay: Inhibition of NEK7 (unknown origin) at 3 uM relative to control

Serine/threonine-protein kinase Nek7 (Homo sapiens), sequence (Q8TDX7 whole entry, looked up): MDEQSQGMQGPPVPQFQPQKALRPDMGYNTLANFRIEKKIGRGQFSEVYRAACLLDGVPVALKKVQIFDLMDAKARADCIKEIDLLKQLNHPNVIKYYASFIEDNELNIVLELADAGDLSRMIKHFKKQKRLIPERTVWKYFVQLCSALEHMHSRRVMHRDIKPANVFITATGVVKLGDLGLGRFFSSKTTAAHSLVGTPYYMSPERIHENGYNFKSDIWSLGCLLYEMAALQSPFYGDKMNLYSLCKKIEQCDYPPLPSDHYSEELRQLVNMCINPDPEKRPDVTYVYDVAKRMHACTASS
Serine/threonine-protein kinase Nek4 (Homo sapiens), sequence (P51957 whole entry, looked up): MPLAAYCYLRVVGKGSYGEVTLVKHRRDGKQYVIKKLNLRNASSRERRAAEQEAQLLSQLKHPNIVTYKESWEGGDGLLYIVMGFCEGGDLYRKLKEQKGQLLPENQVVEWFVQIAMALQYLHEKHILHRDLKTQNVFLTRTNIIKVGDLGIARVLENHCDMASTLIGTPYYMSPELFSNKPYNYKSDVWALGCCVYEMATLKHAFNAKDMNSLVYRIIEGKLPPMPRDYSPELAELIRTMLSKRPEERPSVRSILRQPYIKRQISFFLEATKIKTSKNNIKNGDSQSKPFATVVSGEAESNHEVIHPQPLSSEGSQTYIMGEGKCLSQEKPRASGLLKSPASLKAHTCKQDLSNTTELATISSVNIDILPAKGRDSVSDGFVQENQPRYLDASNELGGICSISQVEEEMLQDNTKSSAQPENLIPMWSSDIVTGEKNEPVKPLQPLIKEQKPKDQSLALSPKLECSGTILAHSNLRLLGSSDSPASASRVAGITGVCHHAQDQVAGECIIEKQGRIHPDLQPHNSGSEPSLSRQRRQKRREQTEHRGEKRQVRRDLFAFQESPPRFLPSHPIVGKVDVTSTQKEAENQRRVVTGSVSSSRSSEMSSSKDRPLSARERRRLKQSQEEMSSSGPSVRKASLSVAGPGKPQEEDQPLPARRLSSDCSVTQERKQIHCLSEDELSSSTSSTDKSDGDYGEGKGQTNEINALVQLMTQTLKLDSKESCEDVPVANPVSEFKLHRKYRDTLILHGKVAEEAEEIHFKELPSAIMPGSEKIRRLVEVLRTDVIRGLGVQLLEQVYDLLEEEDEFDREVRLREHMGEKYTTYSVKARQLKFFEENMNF
Serine/threonine-protein kinase Nek6 (Homo sapiens), sequence (Q9HC98 whole entry): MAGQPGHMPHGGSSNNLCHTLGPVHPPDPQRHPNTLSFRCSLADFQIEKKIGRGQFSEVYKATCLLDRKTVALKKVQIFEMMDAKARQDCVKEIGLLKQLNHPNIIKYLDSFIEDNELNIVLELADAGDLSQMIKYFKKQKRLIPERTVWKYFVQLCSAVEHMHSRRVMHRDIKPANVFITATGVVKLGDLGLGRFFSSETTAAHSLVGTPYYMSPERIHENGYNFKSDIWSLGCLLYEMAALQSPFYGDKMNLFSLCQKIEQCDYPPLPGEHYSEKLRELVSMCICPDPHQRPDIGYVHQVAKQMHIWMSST
Mitogen-activated protein kinase kinase kinase 8, sequence (P41279 whole entry): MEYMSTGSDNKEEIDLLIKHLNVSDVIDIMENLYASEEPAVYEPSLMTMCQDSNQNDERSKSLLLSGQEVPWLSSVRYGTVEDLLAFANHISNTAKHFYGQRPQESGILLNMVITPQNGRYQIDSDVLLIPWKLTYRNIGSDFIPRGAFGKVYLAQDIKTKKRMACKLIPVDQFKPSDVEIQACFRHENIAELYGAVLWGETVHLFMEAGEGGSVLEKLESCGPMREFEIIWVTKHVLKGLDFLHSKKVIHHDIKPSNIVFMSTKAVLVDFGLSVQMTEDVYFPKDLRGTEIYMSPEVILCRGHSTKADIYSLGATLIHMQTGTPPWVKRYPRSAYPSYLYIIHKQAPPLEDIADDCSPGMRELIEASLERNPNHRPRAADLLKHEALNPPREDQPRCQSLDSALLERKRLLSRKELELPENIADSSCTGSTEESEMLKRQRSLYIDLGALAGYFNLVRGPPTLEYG

`COc1cc(Nc2ncc3c(C)nc(-c4cccc(Oc5ccccc5)c4)n3n2)cc(OC)c1OC` gave an inhibition [1] of 32%, an inhibition [2] of 81% and an inhibition [3] of 2%. It also gave an inhibition [4] of -1%, an inhibition [5] of 3% and an inhibition [6] of 7%. It also gave an inhibition [7] of 29%, an inhibition [8] of 4% and an inhibition [9] of 3%.
In the case of `CCCS(=O)(=O)Nc1ccc(F)c(C(=O)c2c[nH]c3ncc(-c4ccc(Cl)cc4)cc23)c1F` [VEMURAFENIB], the Kd [10] is reported as 5000 nM, the % control [11] is reported as 49% and the % control [12] is reported as 69%. It also gave a % control [13] of 71%, a % control [14] of 100% and a % control [15] of 91%. It also gave a % control [16] of 59% and a % control [17] of 66%.
Work on `COc1cc(Nc2ncc3c(C)nc(-c4cccc(C(F)(F)F)c4)n3n2)cc(OC)c1OC` yielded an inhibition [1] of 38%, an inhibition [2] of 9% and an inhibition [3] of 10%. For the same molecule, the inhibition [4] was 86%, the inhibition [5] was 5% and the inhibition [6] was 8%. It also gave an inhibition [7] of 4%, an inhibition [8] of 6% and an inhibition [9] of 55%.
`N#CCNC(=O)c1ccc(-c2ccnc(Nc3ccc(N4CCOCC4)cc3)n2)cc1` [MOMELOTINIB] was tested, and the Kd [18] was under 100 nM, the Kd [19] was under 100 nM and the Kd [20] was under 100 nM. It also gave an IC50 [21] of 100 nM.
`Ic1ccc(Oc2cncc3sc(-c4nn[nH]n4)cc23)cc1` showed an inhibition [22] of 47.5%.
With `NC(=O)c1ccc(-c2ccc(Oc3cncc4sc(-c5nn[nH]n5)cc34)cc2)cc1` the inhibition [22] was 89.9% and the IC50 [23] was 150 nM.
For `COCCOc1cc2c(-n3nc(-c4ccccn4)nc3N)ncnc2cc1OC`, the inhibition [24] was 78%.
